Structures are written as SMILES. pKi: −log10 of the molar value. “And” between values parts separate entries of the source, which are not always exact repeats. Equal values may be shown once.

The assay addresses Carboxylic ester hydrolase (Equus caballus, UniProt Q9N1N9). The experiment in a line: Inhibition Assay. Conditions: 40 °C. Here is the method: Butyrylcholinesterase type IV-S, lyophilized from horse serum (sigma Chemical Co.) was used without further purification. HPLC analyses (Thermo Separation Products, Spectra SYSTEM 2000) were performed on an RP-18 column at 40 C.

Chain of Carboxylic ester hydrolase (Q9N1N9 whole entry): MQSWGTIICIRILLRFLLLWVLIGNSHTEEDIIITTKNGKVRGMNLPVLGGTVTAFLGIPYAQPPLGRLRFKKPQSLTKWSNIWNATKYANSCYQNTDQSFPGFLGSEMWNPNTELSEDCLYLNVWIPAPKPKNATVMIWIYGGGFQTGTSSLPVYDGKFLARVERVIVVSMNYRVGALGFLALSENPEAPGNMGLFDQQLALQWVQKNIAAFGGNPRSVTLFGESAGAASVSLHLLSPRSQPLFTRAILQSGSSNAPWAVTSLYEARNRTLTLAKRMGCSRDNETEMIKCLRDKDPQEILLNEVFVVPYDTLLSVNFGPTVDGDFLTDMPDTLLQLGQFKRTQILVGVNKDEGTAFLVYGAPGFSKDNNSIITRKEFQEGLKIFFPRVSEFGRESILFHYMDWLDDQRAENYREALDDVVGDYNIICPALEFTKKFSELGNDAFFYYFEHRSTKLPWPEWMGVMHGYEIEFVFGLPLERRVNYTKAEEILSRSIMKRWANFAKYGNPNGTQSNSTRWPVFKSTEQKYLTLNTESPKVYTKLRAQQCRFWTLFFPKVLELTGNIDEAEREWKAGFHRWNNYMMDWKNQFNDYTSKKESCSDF

For the molecule `O=C(NC1C[N+]2(Cc3ccccc3)CCC1CC2)c1ccccc1` [(S)-N-Benzyl-3-benzamidoquinuclidinium bromide, 12], the pKi is 4.59 and 5.43.

Take `CCCC(=O)NC1C[N+]2(Cc3ccccc3)CCC1CC2` [(S)-N-Benzyl-3-butanamidoquinuclidinium bromide, 9]: the pKi was 3.80 and 3.62.

These data come from BindingDB's records for doi:10.1016/j.bioorg.2006.01.004 (University of Zagreb, 2006).
